According to patent US6737383B1, “Herbicidal oxadiazolidines” (priority 1999, dated 2004):

Experiments:
soybean = test: Test B pre/postemergence soybean; type: in vivo, Glycine max
In short: (§1)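 Herbicidal effect was estimated by eye on a ten-point control scale after plants spent twelve to sixteen days in a greenhouse following soil or foliar treatment. Foliar sprays targeted plants at one to four leaves; all doses were formulated in a non-phytotoxic solvent with surfactant.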

surinam grass = test: Test B pre/postemergence surinam grass; type: in vivo, Brachiaria decumbens
In short: as §1

blackgrass = test: Test B pre/postemergence blackgrass; type: in vivo, Alopecurus myosuroides
In short: as §1

giant foxtail = test: Test B pre/postemergence giant foxtail; type: in vivo, Setaria faberii
In short: as §1

bedstraw = test: Test B pre/postemergence bedstraw; type: in vivo, Galium aparine
In short: as §1

rice = test: Test B flood test rice; type: in vivo, Oryza sativa
In short: (§2)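 Read-out is a visual response score from 0 (no effect) to 10 (complete control), assigned by comparison with untreated controls. Treatment was applied at the 2-leaf stage, and plants stayed in the greenhouse for twelve to sixteen days before scoring.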

crabgrass = test: Test B pre/postemergence crabgrass; type: in vivo, Digitaria sanguinalis
In short: as §1

velvetleaf = test: Test B pre/postemergence velvetleaf; type: in vivo, Abutilon theophrasti
In short: as §1

rape = test: Test B pre/postemergence rape; type: in vivo, Brassica napus
In short: as §1

pigweed = test: Test B pre/postemergence pigweed; type: in vivo, Amaranthus retroflexus
In short: as §1

duck salad = test: Test B flood test duck salad; type: in vivo, Heteranthera limosa
In short: as §2

bamyardgrass = test: Test B flood test barnyardgrass; type: in vivo, Echinochloa crus-galli
In short: as §2

cocklebur = test: Test B pre/postemergence cocklebur; type: in vivo, Xanthium strumarium
In short: as §1

sugar beet = test: Test B pre/postemergence sugar beet; type: in vivo, Beta vulgaris
In short: as §1

corn = test: Test B pre/postemergence corn; type: in vivo, Zea mays
In short: as §1

wild oat = test: Test B pre/postemergence wild oat; type: in vivo, Avena fatua
In short: as §1

smallflower flatsedge = test: Test B flood test smallflower flatsedge; type: in vivo, Cyperus difformis
In short: as §2

morningglory = test: Test B pre/postemergence morningglory; type: in vivo, Ipomoea hederacea
In short: as §1

purple nutsedge = test: Test B pre/postemergence purple nutsedge; type: in vivo, Cyperus rotundus
In short: as §1

wheat = test: Test B pre/postemergence wheat; type: in vivo, Triticum aestivum
In short: as §1

[1] = Preemergence, Rate 62 g/ha, scale of 0 to 10 where 0 is no effect and 10 is complete control
[2] = Preemergence, Rate 250 g/ha, scale of 0 to 10 where 0 is no effect and 10 is complete control
[3] = Preemergence, Rate 500 g/ha, scale of 0 to 10 where 0 is no effect and 10 is complete control
[4] = Rate 125 g/ha, Preemergence, scale of 0 to 10 where 0 is no effect and 10 is complete control
[5] = Rate 500 g/ha, Postemergence, scale 0 to 10, 0 no effect, 10 complete control
[6] = Rate 62 g/ha, Postemergence, scale of 0 to 10 where 0 is no effect and 10 is complete control
[7] = Rate 125 g/ha, Postemergence, scale 0 to 10
[8] = Rate 62 g/ha, headed Pre-emergence (flood test species), scale 0 to 10 (0 no effect, 10 complete control)
[9] = Rate 125 g/ha, Pre-emergence, flood test species, scale 0 to 10 where 0 is no effect and 10 is complete control
[10] = Rate 250 g/ha, Pre-emergence, flood-test species, scale 0 to 10, 0 is no effect, 10 is complete control
[11] = Rate 500 g/ha, Pre-emergence, flood test species, scale 0 to 10 (0 no effect, 10 complete control)

CC(C)N(C(=O)n1oc(=O)n(CCC2CCCCC2)c1=O)c1ccc(F)cc1 [Compound 257]
Soybean plant response rating (soybean; [1]): 0
Soybean plant response rating (soybean; [2]): 0
Plant response rating, Soybean (soybean; [3]): 0
Soybean plant response rating (soybean; [4]): 0
Soybean plant response rating (soybean; [5]): 4
B. signalgrass plant response rating (surinam grass; [1]): 0
B. signalgrass plant response rating (surinam grass; [2]): 0
Plant response rating, B. signalgrass (surinam grass; [3]): 3
B. signalgrass plant response rating (surinam grass; [6]): 0
B. signalgrass plant response rating (surinam grass; Rate 125 g/ha, Postemergence, scale 0 (no effect) to 10 (complete control)): 0
B. signalgrass plant response rating (surinam grass; [4]): 0
Plant response rating (0 to 10; 0 is no effect, 10 is complete control), B. signalgrass (surinam grass; Rate 250 g/ha, Postemergence): 0
B. signalgrass plant response rating (surinam grass; [5]): 0
Blackgrass plant response rating (blackgrass; [1]): 0
Blackgrass plant response rating (blackgrass; [2]): 0
Plant response rating, Blackgrass (blackgrass; [3]): 0
Blackgrass plant response rating (blackgrass; [6]): 0
Blackgrass plant response rating (blackgrass; [7]): 0
Blackgrass plant response rating (blackgrass; [4]): 0
Plant response rating (0 to 10; 0 is no effect, 10 is complete control), Blackgrass (blackgrass; Rate 250 g/ha, Postemergence): 1
Blackgrass plant response rating (blackgrass; [5]): 2
Giant foxtail plant response rating (giant foxtail; [1]): 3
Giant foxtail plant response rating (giant foxtail; [2]): 6
Plant response rating, Giant foxtail (giant foxtail; [3]): 9
Giant foxtail plant response rating (giant foxtail; [4]): 6
Plant response rating (0 to 10; 0 is no effect, 10 is complete control), Giant foxtail (giant foxtail; Rate 250 g/ha, Postemergence): 0
Giant foxtail plant response rating (giant foxtail; [5]): 2
Bedstraw plant response rating (bedstraw; [1]): 0
Bedstraw plant response rating (bedstraw; [2]): 0
Plant response rating, Bedstraw (bedstraw; [3]): 0
Bedstraw plant response rating (bedstraw; [6]): 0
Bedstraw plant response rating (bedstraw; [7]): 0
Bedstraw plant response rating (bedstraw; [4]): 0
Plant response rating (0 to 10; 0 is no effect, 10 is complete control), Bedstraw (bedstraw; Rate 250 g/ha, Postemergence): 0
Bedstraw plant response rating (bedstraw; [5]): 0
Rice plant response rating (rice; [8]): 0
Rice plant response rating (rice; [9]): 0
Rice plant response rating (rice; [10]): 0
Rice plant response rating (rice; [11]): 0
Crabgrass plant response rating (crabgrass; [1]): 0
Crabgrass plant response rating (crabgrass; [2]): 2
Plant response rating, Crabgrass (crabgrass; [3]): 5
Crabgrass plant response rating (crabgrass; [4]): 2
Plant response rating (0 to 10; 0 is no effect, 10 is complete control), Crabgrass (crabgrass; Rate 250 g/ha, Postemergence): 2
Crabgrass plant response rating (crabgrass; [5]): 4
Velvetleaf plant response rating (velvetleaf; [1]): 0
Velvetleaf plant response rating (velvetleaf; [2]): 0
Plant response rating, Velvetleaf (velvetleaf; [3]): 0
Velvetleaf plant response rating (velvetleaf; [4]): 0
Velvetleaf plant response rating (velvetleaf; [5]): 1
Rape plant response rating (rape; [1]): 0
Rape plant response rating (rape; [2]): 0
Plant response rating, Rape (rape; [3]): 0
Rape plant response rating (rape; [4]): 0
Plant response rating (0 to 10; 0 is no effect, 10 is complete control), Rape (rape; Rate 250 g/ha, Postemergence): 2
Rape plant response rating (rape; [5]): 5
Redroot pigweed plant response rating (pigweed; [1]): 0
Redroot pigweed plant response rating (pigweed; [2]): 0
Plant response rating, Redroot pigweed (pigweed; [3]): 4
Redroot pigweed plant response rating (pigweed; [4]): 0
Plant response rating (0 to 10; 0 is no effect, 10 is complete control), Redroot pigweed (pigweed; Rate 250 g/ha, Postemergence): 4
Redroot pigweed plant response rating (pigweed; [5]): 6
Ducksalad plant response rating (duck salad; [8]): 0
Ducksalad plant response rating (duck salad; [9]): 0
Ducksalad plant response rating (duck salad; [10]): 0
Ducksalad plant response rating (duck salad; [11]): 0
Barnyardgrass plant response rating (bamyardgrass; [8]): 0
Barnyardgrass plant response rating (bamyardgrass; [9]): 0
Barnyardgrass plant response rating (bamyardgrass; [10]): 0
Barnyardgrass plant response rating (bamyardgrass; [11]): 0
Cocklebur plant response rating (cocklebur; [1]): 0
Cocklebur plant response rating (cocklebur; [2]): 0
Plant response rating, Cocklebur (cocklebur; [3]): 0
Cocklebur plant response rating (cocklebur; [6]): 0
Cocklebur plant response rating (cocklebur; [7]): 0
Cocklebur plant response rating (cocklebur; [4]): 0
Plant response rating (0 to 10; 0 is no effect, 10 is complete control), Cocklebur (cocklebur; Rate 250 g/ha, Postemergence): 0
Cocklebur plant response rating (cocklebur; [5]): 0
Sugarbeets plant response rating (sugar beet; [1]): 0
Sugarbeets plant response rating (sugar beet; [2]): 0
Plant response rating, Sugarbeets (sugar beet; [3]): 0
Sugarbeets plant response rating (sugar beet; [4]): 0
Sugarbeets plant response rating (sugar beet; [5]): 5
Corn plant response rating (corn; [1]): 0
Corn plant response rating (corn; [2]): 0
Plant response rating, Corn (corn; [3]): 0
Corn plant response rating (corn; [6]): 0
Corn plant response rating (corn; [7]): 0
Corn plant response rating (corn; [4]): 0
Plant response rating (0 to 10; 0 is no effect, 10 is complete control), Corn (corn; Rate 250 g/ha, Postemergence): 0
Corn plant response rating (corn; [5]): 0
Wild oats plant response rating (wild oat; [1]): 0
Wild oats plant response rating (wild oat; [2]): 0
Plant response rating, Wild oats (wild oat; [3]): 4
Wild oats plant response rating (wild oat; [4]): 0
Wild oats plant response rating (wild oat; [5]): 0
S. Flatsedge plant response rating (smallflower flatsedge; [8]): 0
S. Flatsedge plant response rating (smallflower flatsedge; [9]): 0
S. Flatsedge plant response rating (smallflower flatsedge; [10]): 0
S. Flatsedge plant response rating (smallflower flatsedge; [11]): 0
Morningglory plant response rating (morningglory; [1]): 0
Morningglory plant response rating (morningglory; [2]): 2
Plant response rating, Morningglory (morningglory; [3]): 4
Morningglory plant response rating (morningglory; [4]): 0
Plant response rating (0 to 10; 0 is no effect, 10 is complete control), Morningglory (morningglory; Rate 250 g/ha, Postemergence): 8
Morningglory plant response rating (morningglory; [5]): 8
Nutsedge plant response rating (purple nutsedge; [2]): 0
Plant response rating, Nutsedge (purple nutsedge; [3]): 0
Nutsedge plant response rating (purple nutsedge; [4]): 0
Plant response rating (0 to 10; 0 is no effect, 10 is complete control), Nutsedge (purple nutsedge; Rate 250 g/ha, Postemergence): 0
Nutsedge plant response rating (purple nutsedge; [5]): 0
Wheat plant response rating (wheat; [1]): 0
Wheat plant response rating (wheat; [2]): 0
Plant response rating, Wheat (wheat; [3]): 4
Wheat plant response rating (wheat; [4]): 0
Wheat plant response rating (wheat; [5]): 0
